{"source": "patent US20100028416A1", "about": "“DRUG CARRIERS” (Nitto Denko Corporation, priority 2008, published 2010)", "system": "HSC-T6 cells", "details": "96-well plate, excitation 560 nm, emission 590 nm, FIGS. 8-9, comparison with non-retinoid composition", "method": "HSC-T6 cells, which express a vitamin A binding protein receptor, were seeded one day prior to experiment in a 96-well plate (100 μL culture medium per well). […] The solutions were diluted with culture medium and incubated for 15 minutes at room temperature. 15 μL was added to the cells. After incubating the cells in solution, the culture medium was removed. Cells were washed once with DPBS and fresh culture medium was added (100 μL culture medium per well). Absorbance (excitation and emission wavelengths were 560 nm and 590 nm, respectively) was read by a BioTek FLx800 96-well plate fluorescence reader and recorded.", "data": [{"substance": "Texas Red-Dextran-Retinoid", "values": [{"measurement": "cell uptake (absorbance; greater absorbance indicates greater cell uptake)", "result": "greater cellular uptake than the oleic acid composition"}]}]}
